# Laboratory results reported in patent US20190336537A1, “GENERATING ATRIAL AND VENTRICULAR CARDIOMYOCYTE LINEAGES FROM HUMAN PLURIPOTENT STEM CELLS” (UNIVERSITY HEALTH NETWORK, priority 2016, published 2019).
# Experiments:
# [1] = system: HES3 NKX2-5:GFP reporter hESC line derived cardiomyocytes; assay: qRT-PCR analysis of atrial and ventricular gene expression in day 20 hPSC-derived cardiomyocytes; format: cell-based, human
# Method: To determine if retinoic acid signaling can specify an atrial fate in hPSC-derived cardiogenic populations generated with our embryoid-body (EB)-based protocol, all trans retinoic acid (RA) was added to the differentiation cultures at 4 different time points that represent the following developmental stages: mesoderm induction (day 3), cardiovascular specification (day 5), cardiac progenitor development (day 7) and emergence of contracting cardiomyocytes (day 9) (Kattman et al., 2011) (FIG. 1A). The HES3 NKX2-5: GFP reporter hESC line was used for these experiments to allow us to monitor and quantify cardiovascular development and to isolate GFP+ cardiomyocytes. At day 20 of culture, GFP+SIRPA+CD90− cardiomyocytes were isolated from the differentiated populations and analyzed by RTqPCR for expression of genes indicative of atrial and ventricular development. (FIGS. 1B-D and 8B-E).
# (§1) For cardiac differentiation, we used a modified version of our embryoid body (EB)-based protocol (Kattman et al., 2011). hPSC populations at 80%-90% confluence were dissociated into single cells (TrypLE, ThermoFisher) and re-aggregated to form EBs in StemPro-34 media (ThermoFisher) containing penicillin/streptomycin (1%, ThermoFisher), L-glutamine (2 mM, ThermoFisher), trans-ferrin (150 μg/ml, ROCHE), ascorbic acid (50 μg/ml, Sigma), and monothioglycerol (50 μg/ml, Sigma), ROCK inhibitor Y-27632 (10 μM, TOCRIS) and rhBMP4 (1 ng/ml, R&D) for 18 h on an orbital shaker. At day 1, the EBs were transferred to mesoderm induction media consisting of StemPro-34 with above supplements (-ROCK inhibitor Y-27632) and rhBMP4, rhActivinA (R&D) and rhbFGF (5 ng/ml, R&D) at the indicated concentrations. At day 3, the EBs were harvested, washed with IMDM and transferred to cardiac mesoderm specification media consisting of StemPro-34, the Wnt inhibitor IWP2 (1 μM, TOCRIS) and rhVEGF (10 ng/mL, R&D). At day 5, the EBs were transferred to Stem Pro-34 with rhVEGF (5 ng/ml) for another 7 days and then to Stem Pro-34 media without additional cytokines for further 8 days. At day 20, HES3-NKX2-5gfp/w-derived cardiomyocytes were analyzed and isolated based on the expression of NKX2-5:GFP and SIRPa and a lack of CD90. Cardiomyocytes generated from non-transgenic hPSC lines were analyzed and isolated as SIRPa+CD90− populations. Media was changed every 3 days. Cultures were incubated in a low oxygen environment (5% CO2, 5% O2, 90% N2) for first 12 days and a normoxic environment (5% CO2) for the following 8 days in total of 20 days. The EBs were cultured in ultra-low attachment 6-well dishes (Corning) throughout the differentiation for maintaining suspension cultures.
# Total RNA from hPSC-derived populations was isolated using RNAqueous-micro Kit including RNase-free DNase treatment (Ambion). RNA from dissected ventricular and atrial tissue of human fetal hearts was isolated using the TRIzol method (ThermoFisher) and treated with DNase (Ambion). Between 100 ng and […] of isolated RNA was reverse transcribed into cDNA using oligo (dT) primers and random hexamers and Superscript III Reverse Transcriptase (ThermoFisher). QRT-PCR was performed on an EP Real-Plex MasterCycler (Eppendorf) using QuantiFast SYBR Green PCR kit (QIAGEN). All experiments were prepared in duplicates and included a 10-fold dilution series of sonicated human genomic DNA standards ranging from 25 ng/ml to 2.5 μg/ml for evaluating the efficiency of PCR reaction and the copy number of each gene relative to the house keeping gene TBP. […]
# [2] = system: HES2 human embryonic stem cell derived EBs; assay: ROH/RA response of HES2-derived EBs (day 20 flow cytometry and qRT-PCR); format: cell-based; conditions: treated days 3 to 5
# Description: (§2) To determine if the approach for optimizing atrial and ventricular differentiation based on ALDH activity and CD235a expression is broadly applicable, we next used it to generate these cardiomyocyte populations from the HES2 human embryonic stem cell and the MSC-iPS1 induced pluripotent stem cell lines. Titration studies identified 5B/2A and 5B/6A as optimal for atrial and ventricular inductions, respectively, for HES2 cells and 4B/4A as optimal for ventricular induction for MSCiPSC1 cells (FIGS. 7A, 7B, 7E, and 7F; Mendeley http://dx.doi.org/10.17632/7z7d5v2c3w.1). Optimization of atrial induction from the MSC-iPSC1 cells was more challenging, as all cytokine combinations promoted the development of a substantial CD235a+ population. One interpretation of these patterns is that the MSC-iPS1 cells have a high level of endogenous Nodal/Activin A signaling, resulting in the development of some CD235a+ cells under all conditions. To test this, we added the Nodal/Activin A/transforming growth factor beta (TGF-beta) inhibitor SB-431542 (SB) from days 3 to 5 to cells induced with 4B/1A.
# as §1, with “The EBs were cultured in ultra-low attachment 6-well dishes (Corning) throughout the differentiation for maintaining suspension cultures.” left out
# [3] = system: MSC-iPS1 induced pluripotent stem cell line derived EBs; assay: ROH/RA response of MSC-iPS1-derived EBs (day 20 flow cytometry and qRT-PCR); format: cell-based, human; conditions: treated days 3 to 5
# Description: as §2
# as §1, with “The EBs were cultured in ultra-low attachment 6-well dishes (Corning) throughout the differentiation for maintaining suspension cultures.” left out
# [4] = system: HES3 NKX2-5:GFP reporter hESC line derived cardiomyocytes; assay: qRT-PCR analysis of atrial and ventricular gene expression in day 20 hPSC-derived cardiomyocytes; format: cell-based, human; remark: listed apart in the source
# [5] = RA added at days 3 and 5, day 20
# [6] = day 3 RA-treated mesoderm versus non-treated
smiles,measurement,setting,value
"CC1=C(/C=C/C(C)=C/C=C/C(C)=C/C(=O)O)C(C)(C)CCC1 [RA, all trans retinoic acid]",expression of atrial ion channel gene KCNJ3,[1]; [5],upregulation
same,expression of ventricular-specific gene MYL2,[1]; [5],significant reduction
same,expression of pan-cardiomyocyte marker CTNT,"[1]; RA added at different time points, 10B/6A induced, day 20",None of the RA treatments significantly altered
same,"expression of atrial markers NR2F2, TBX5, NPPA, MYL7, CACNA1D, KCNA5, GJA5",[1]; [6],reverse pattern
same,expression of ventricular markers IRX4 and MYH7,[1]; [6],lower levels
same,response of ALDH+ mesoderm (atrial expression profile),"[2]; HES2, 5B/2A induced",responded to both ROH and RA
same,"response of CD235a+ mesoderm (MLC2V content, MYL2, IRX4, KCNJ3, NR2F2)","[2]; HES2, 5B/6A induced",both responded to RA
same,response of ALDH+ mesoderm (atrial expression profile),"[3]; MSC-iPS1, 4B/1A+SB induced",responded to both ROH and RA
same,"response of CD235a+ mesoderm (MLC2V content, MYL2, IRX4, KCNJ3, NR2F2)","[3]; MSC-iPS1, 4B/4A induced",both responded to RA
same,"expression of KCNJ3, CACNA1D and NR2F2 in VI versus AI cardiomyocytes",[4]; 4 mM RA,Comparable expression levels
same,expression of ventricular genes MYL2 and IRX4 in the VI population,[4]; RA 1-2 mM,completely suppress
same,expression of MYL2 and KCNJ3,[4]; RA added at later stages (days 7 and 12),no effect
same,expression level of KCNA5 in cardiomyocytes from VI EBs,[4]; RA increased from 0.5 to 1-2 mM,did increase
same,"expression of KCNJ3, CACNA1D and NR2F2 in VI cardiomyocytes to levels of AI cells",[4]; RA up to 2 mM,failed to increase
